Tests used:
[1] = tested on: clinically isolated Acinetobacter baumannii; details: found in 2017; cited from earlier work
[2] = tested on: CR-Ab pneumonia model mice; assay: Protective effect in CR-Ab pneumonia model mice (7-day survival); type: in vivo, Male C57BL/6 mice; details: intraperitoneal, once a day, after 7 days
[3] = tested on: carbapenem antibiotic-resistant Acinetobacter baumannii CR-Ab (157 clinically isolated strains); assay: microbe, parasite or virus in culture; details: read-out: Cumulative microbial inhibition rates (%) against CR-Ab
Text: Strains: 157 clinically isolated strains of carbapenem antibiotic-resistant Acinetobacter baumannii were selected and named as CR-Ab.
Drugs: Sulbactam and ceftazidime were taken and prepared into compositions of different ratios. The method was fixing the amount of sulbactam and gradually reducing the amount of ceftazidime to obtain compositions of sulbactam and ceftazidime at weight ratios of 1:1, 1:0.9, 1:0.8, 1:0.6, 1:0.4, 1:0.2 and 1:0.1, respectively. A sulbactam-only preparation was additionally used as a control.
The cumulative microbial inhibition rate was used to evaluate the microbial inhibition effects of the drugs, respectively. The cumulative microbial inhibition rate was defined as the microbial inhibition rate of a drug at a certain concentration plus all the microbial inhibition rates below that concentration.

| SMILES | resistance rate [1] | Survival of CR-Ab pneumonia model mice ([2]; High dose (30 mg/kg)) | Survival of CR-Ab pneumonia model mice ([2]; Low dose (10 mg/kg)) | inhibition at 0.125 µg/mL [3] | inhibition at 0.25 µg/mL [3] | inhibition at 0.5 µg/mL [3] | inhibition at 1 µg/mL [3] | inhibition at 2 µg/mL [3] | inhibition at 4 µg/mL [3] | inhibition at 8 µg/mL [3] | inhibition at 16 µg/mL [3] | inhibition at 32 µg/mL [3] | inhibition at 64 µg/mL [3] | inhibition at 128 µg/mL [3] | inhibition at 256 µg/mL [3] | inhibition at 512 µg/mL [3] |
| --- | --- | --- | --- | --- | --- | --- | --- | --- | --- | --- | --- | --- | --- | --- | --- | --- |
| C[C@@H](O)[C@H]1C(=O)N2C(C(=O)O)=C(S[C@@H]3CN[C@H](C(=O)N(C)C)C3)[C@H](C)[C@H]12 [Meropenem, meropenem] | up to 69.3% | 3/15 | 2/15 | – | – | – | – | – | – | – | – | – | – | – | – | – |
| CC(C)(O/N=C(\C(=O)N[C@@H]1C(=O)N2C(C(=O)[O-])=C(C[n+]3ccccc3)CS[C@H]12)c1csc(N)n1)C(=O)O [ceftazidime, (6R,7R)-7-[[(2Z)-2-(2-Aminothiazol-4-yl)-2-[(1-carboxy-1-methylethoxy)imino]acetyl]amino]-8-oxo-3-[(1-pyridinio)methyl]-5-thia-1-azabicyclo[4.2.0]oct-2-ene-2-carboxylate] | up to 72% | – | – | – | – | – | – | – | – | – | – | – | – | – | – | – |
| CC1(C)[C@H](C(=O)O)N2C(=O)C[C@H]2S1(=O)=O [Single sulbactam, (2S,5R)-3,3-dimethyl-7-oxo-4-thia-1-azabicyclo[3.2.0]heptane-2-carboxylate-4,4-dioxide] | – | – | – | 0% | 0% | 0% | 7% | 17% | 32% | 48% | 64% | 84% | 94% | 100% | 100% | 100% |
